According to the supplement of paper PMC10307832:

Tests used:
Assay in all cases: relative viability (nuclei count vs DMSO), 5 days (fraction); higher = more cells survive
RAF265 + Crizotinib = compound: Cn1c(Nc2ccc(C(F)(F)F)cc2)nc2cc(Oc3ccnc(-c4ncc(C(F)(F)F)[nH]4)c3)ccc21 [RAF265] + C[C@@H](Oc1cc(-c2cnn(C3CCNCC3)c2)cnc1N)c1c(Cl)ccc(F)c1Cl [Crizotinib] (partner 1 µM)
Procedure, shortened: (§1)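 Dosing by pin tool came one day after lung cancer cell lines were seeded in 1536-well plates, using either one drug or a fixed anchor-drug dose plus five library-drug doses (not always all listed) in √10 steps. After 5 days, nuclei were counted on 4× images. Relative viability is treated-well nuclei count divided by vehicle-well nuclei count, and values are medians of duplicate plates.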

RAF265 + Trametinib = compound: Cn1c(Nc2ccc(C(F)(F)F)cc2)nc2cc(Oc3ccnc(-c4ncc(C(F)(F)F)[nH]4)c3)ccc21 [RAF265] + CC(=O)Nc1cccc(-n2c(=O)n(C3CC3)c(=O)c3c(Nc4ccc(I)cc4F)n(C)c(=O)c(C)c32)c1 [Trametinib] (partner 0.02 µM)
Procedure, shortened: as §1

IPA-3 + Lapatinib = compound: C1=CC=C2C(=C1)C=CC(=C2SSC3=C(C=CC4=CC=CC=C43)O)O [IPA-3] + CS(=O)(=O)CCNCc1ccc(-c2ccc3ncnc(Nc4ccc(OCc5cccc(F)c5)c(Cl)c4)c3c2)o1 [Lapatinib] (partner 2 µM)
Procedure, shortened: as §1

RAF265 + Palbociclib = compound: Cn1c(Nc2ccc(C(F)(F)F)cc2)nc2cc(Oc3ccnc(-c4ncc(C(F)(F)F)[nH]4)c3)ccc21 [RAF265] + CC(=O)c1c(C)c2cnc(Nc3ccc(N4CCNCC4)cn3)nc2n(C2CCCC2)c1=O [Palbociclib] (partner 0.5 µM)
Procedure, shortened: as §1

| Cell Line | relative viability (RAF265 + Crizotinib; first compound 0.01 µM) | relative viability (RAF265 + Crizotinib; first compound 0.03162 µM) | relative viability (RAF265 + Crizotinib; first compound 0.1 µM) | relative viability (RAF265 + Crizotinib; first compound 0.3162 µM) | relative viability (RAF265 + Crizotinib; first compound 1 µM) | relative viability (RAF265 + Trametinib; first compound 0.01 µM) | relative viability (RAF265 + Trametinib; first compound 0.03162 µM) | relative viability (RAF265 + Trametinib; first compound 0.1 µM) | relative viability (RAF265 + Trametinib; first compound 0.3162 µM) | relative viability (RAF265 + Trametinib; first compound 1 µM) | relative viability (IPA-3 + Lapatinib; first compound 0.2 µM) | relative viability (IPA-3 + Lapatinib; first compound 0.6325 µM) | relative viability (IPA-3 + Lapatinib; first compound 2 µM) | relative viability (IPA-3 + Lapatinib; first compound 6.325 µM) | relative viability (IPA-3 + Lapatinib; first compound 20 µM) | relative viability (RAF265 + Palbociclib; first compound 0.01 µM) | relative viability (RAF265 + Palbociclib; first compound 0.03162 µM) | relative viability (RAF265 + Palbociclib; first compound 0.1 µM) | relative viability (RAF265 + Palbociclib; first compound 0.3162 µM) | relative viability (RAF265 + Palbociclib; first compound 1 µM) |
| --- | --- | --- | --- | --- | --- | --- | --- | --- | --- | --- | --- | --- | --- | --- | --- | --- | --- | --- | --- | --- |
| NCI-H1755 | 0.837 | 0.757 | 0.813 | 0.685 | 0.476 | 0.753 | 0.727 | 0.688 | 0.647 | 0.467 | 1.11 | 0.988 | 1.05 | 1.06 | 1.17 | 0.385 | 0.445 | 0.462 | 0.414 | 0.309 |
| NCI-H1993 | 0.725 | 0.85 | 0.993 | 0.759 | 0.758 | 0.585 | 0.619 | 0.542 | 0.384 | 0.435 | 0.829 | 0.742 | 0.767 | 0.909 | 0.738 | 0.584 | 0.595 | 0.661 | 0.575 | 0.507 |
| NCI-H23 | 0.623 | 0.502 | 0.473 | 0.388 | 0.248 | 0.404 | 0.262 | 0.239 | 0.239 | 0.17 | 1.16 | 1.04 | 1.24 | 1.09 | 0.735 | 0.499 | 0.342 | 0.304 | 0.262 | 0.206 |
| NCI-H1437 | 0.902 | 0.808 | 0.998 | 1.05 | 0.768 | 0.544 | 0.552 | 0.505 | 0.716 | 0.493 | 1.34 | 0.774 | 0.802 | 0.726 | 0.825 | 0.318 | 0.315 | 0.305 | 0.366 | 0.306 |
| SK-MES-1 | 1 | 0.88 | 0.919 | 0.334 | 0.242 | 0.601 | 0.531 | 0.443 | 0.317 | 0.285 | 0.524 | 0.431 | 0.487 | 0.423 | 0.449 | 0.291 | 0.233 | 0.241 | 0.252 | 0.204 |
| NCI-H2405 | 0.846 | 0.803 | 0.872 | 0.756 | 0.566 | 0.605 | 0.639 | 0.539 | 0.474 | 0.383 | 1.15 | 1 | 0.921 | 1.17 | 1.16 | 0.552 | 0.497 | 0.499 | 0.491 | 0.282 |
| NCI-H2023 | 0.624 | 0.58 | 0.88 | 0.668 | 0.478 | 0.608 | 0.508 | 0.533 | 0.55 | 0.266 | 0.91 | 0.711 | 0.774 | 0.925 | 0.832 | 0.411 | 0.34 | 0.37 | 0.291 | 0.268 |
| NCI-H838 | 0.807 | 0.855 | 0.989 | 0.911 | 0.718 | 0.542 | 0.511 | 0.518 | 0.462 | 0.39 | 1.55 | 0.964 | 0.941 | 1.01 | 1.07 | 0.203 | 0.222 | 0.193 | 0.176 | 0.154 |
| NCI-H661 | 0.931 | 0.747 | 1.04 | 0.906 | 0.716 | 0.596 | 0.484 | 0.371 | 0.332 | 0.339 | 0.445 | 0.472 | 0.584 | 0.447 | 0.537 | 0.457 | 0.408 | 0.337 | 0.326 | 0.344 |
| NCI-H1734 | 0.662 | 0.47 | 0.751 | 0.492 | 0.319 | 0.722 | 0.526 | 0.564 | 0.535 | 0.276 | 1.19 | 0.969 | 1.12 | 0.982 | 0.892 | 0.384 | 0.319 | 0.324 | 0.286 | 0.221 |
| NCI-H1650 | 1.03 | 0.83 | 1.15 | 0.877 | 0.913 | 0.786 | 0.708 | 0.568 | 0.419 | 0.43 | 0.925 | 0.176 | 0.802 | 0.893 | 0.774 | 0.385 | 0.319 | 0.418 | 0.278 | 0.277 |
| NCI-H1944 | 1.09 | 1.26 | 1.08 | 0.794 | 0.664 | 0.454 | 0.453 | 0.386 | 0.324 | 0.246 | 0.803 | 0.763 | 0.814 | 1.04 | 0.791 | 0.356 | 0.367 | 0.291 | 0.261 | 0.185 |
| LK-2 | 0.203 | 0.222 | 0.239 | 0.237 | 0.223 | 0.721 | 0.628 | 0.787 | 0.799 | 0.53 | 1.13 | 0.877 | 0.959 | 0.9 | 0.821 | 0.558 | 0.679 | 0.722 | 0.804 | 0.364 |
